In patent publication US11046686B2, “Thiadiazole IRAK4 compounds” (Gilead Sciences, Inc., priority 2018, dated 2021):
pEC50, pIC50: −log10 of the molar value. Read-outs that look alike come from different tables or passages of the source.

Legend:
IRAK4 enzyme = IRAK4 enzyme (Homo sapiens (Human), UniProt Q9NWZ3); assay: IRAK4 Biochemical Assay (TR-FRET, STK1 KinEASE)
Outline: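 TR-FRET endpoint (KinEASE STK1): phosphopeptide detected with cryptate antibody and tracer after EDTA quench, ratio 665/615 nm, normalized to no-inhibitor wells as % inhibition. Reaction: 0.75 nM IRAK4, […] peptide, 500 μM ATP, pH 7.0 HEPES, 120 min room temperature, after 15 min compound preincubation with enzyme.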

TNFα = assay: IRAK4 Monocyte TNFα Cell Based Assay; set-up: species or system human; conditions: human monocytes, second part of Table 2, compounds 33-343, unit inferred, read-out: EC50 MONO TNF HTRF
Outline: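 TNFα release quantified by HTRF (cryptate/XL665 antibody pair, overnight at RT) after 1 h compound pre-incubation (0.1% DMSO) and 4 h LPS challenge at 50 pg/ml, 37 °C, 5,000 monocytes per well. Signal ratio normalised between unstimulated (0%) and stimulated (100%) controls.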

[1] = second part of Table 2, compounds 33-343, unit inferred, read-out: IC50 IRAK4-HTBS

Chain of IRAK4 enzyme (Q9NWZ3 whole entry): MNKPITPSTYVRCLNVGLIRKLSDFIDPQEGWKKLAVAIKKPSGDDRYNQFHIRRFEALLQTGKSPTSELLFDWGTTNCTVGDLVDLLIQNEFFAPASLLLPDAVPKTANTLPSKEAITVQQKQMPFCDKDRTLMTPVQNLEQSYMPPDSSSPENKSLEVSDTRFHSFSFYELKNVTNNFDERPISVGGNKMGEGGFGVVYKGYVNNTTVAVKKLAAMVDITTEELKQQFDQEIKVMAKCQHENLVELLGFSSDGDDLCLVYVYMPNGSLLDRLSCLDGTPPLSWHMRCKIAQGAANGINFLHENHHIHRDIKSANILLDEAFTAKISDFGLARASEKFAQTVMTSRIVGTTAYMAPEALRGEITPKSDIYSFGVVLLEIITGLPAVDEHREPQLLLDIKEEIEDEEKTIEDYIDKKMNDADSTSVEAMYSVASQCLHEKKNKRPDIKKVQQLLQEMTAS

Structure (SMILES) | pIC50 (IRAK4 enzyme) | pEC50 (TNFα; Homo sapiens, Monocyte) | pIC50 (IRAK4 enzyme; [1]) | pEC50 (TNFα)
CC(C)Nc1cc(-c2ccc3cc(C#N)cnn23)ncc1-c1nnc(C(=O)N2CC[C@H](NC(=O)C3CC3)C2)s1 [Example 46, (S)-N-(1-(5-(6-(3-cyanopyrrolo[1,2-b]pyridazin-7-yl)-4-(isopropylamino)pyridin-3-yl)-1,3,4-thiadiazole-2-carbonyl)pyrrolidin-3-yl)cyclopropanecarboxamide] | 9.17 | 7.78 | – | –
CC(=O)N[C@H]1CCCN(C(=O)c2nnc(-c3cnc(-c4ccc5cc(C#N)cnn45)cc3NC(C)C)s2)C1 [Example 48, (S)-N-(1-(5-(6-(3-cyanopyrrolo[1,2-b]pyridazin-7-yl)-4-(isopropylamino)pyridin-3-yl)-1,3,4-thiadiazole-2-carbonyl)piperidin-3-yl)acetamide] | 8.72 | 7.43 | – | –
CC(=O)N[C@@H]1CCCN(C(=O)c2nnc(-c3cnc(-c4ccc5cc(C#N)cnn45)cc3NC(C)C)s2)C1 [Example 49, (R)-N-(1-(5-(6-(3-cyanopyrrolo[1,2-b]pyridazin-7-yl)-4-(isopropylamino)pyridin-3-yl)-1,3,4-thiadiazole-2-carbonyl)piperidin-3-yl)acetamide] | 8.76 | 7.46 | – | –
CC(=O)N[C@H]1CC[C@H](c2nnc(-c3cnc(-c4ccc5cnc(N[C@@H]6CCCC[C@@H]6N)nn45)cc3NC(C)C)s2)CC1 [Example 50, N-((1r,4r)-4-(5-(6-(2-(((1R,2S)-2-aminocyclohexyl)amino)pyrrolo[2,1-f][1,2,4]triazin-7-yl)-4-(isopropylamino)pyridin-3-yl)-1,3,4-thiadiazol-2-yl)cyclohexyl)acetamide] | 9.04 | 8.44 | – | –
CC(=O)N[C@@H]1[C@@H]2CC[C@H]1CN(c1nnc(-c3cnc(-c4ccc5cnc(N[C@@H]6CCCC[C@@H]6N)nn45)cc3N[C@H](C)C#N)s1)C2 [Example 61, N-((1R,5S,8S)-3-(5-(6-(2-(((1R,2S)-2-aminocyclohexyl)amino)pyrrolo[2,1-f][1,2,4]triazin-7-yl)-4-(((R)-1-cyanoethyl)amino)pyridin-3-yl)-1,3,4-thiadiazol-2-yl)-3-azabicyclo[3.2.1]octan-8-yl)acetamide] | 9.00 | 8.28 | – | –
CC(=O)N[C@H]1CCN(c2nnc(-c3cnc(-c4ccc5cc(C#N)cnn45)cc3NC(C)C)s2)C[C@H]1O [Example 62, N-((3R,4S)-1-(5-(6-(3-cyanopyrrolo[1,2-b]pyridazin-7-yl)-4-(isopropylamino)pyridin-3-yl)-1,3,4-thiadiazol-2-yl)-3-hydroxypiperidin-4-yl)acetamide] | 9.42 | 7.90 | – | –
CC(=O)N[C@@H]1CCN(c2nnc(-c3cnc(-c4ccc5cc(C#N)cnn45)cc3NC(C)C)s2)C[C@H]1O [Example 65, N-((3R,4R)-1-(5-(6-(3-cyanopyrrolo[1,2-b]pyridazin-7-yl)-4-(isopropylamino)pyridin-3-yl)-1,3,4-thiadiazol-2-yl)-3-hydroxypiperidin-4-yl)acetamide] | 9.52 | 7.97 | – | –
CC(=O)NC12CCC(CC1)N(c1nnc(-c3cnc(-c4ccc5cc(C#N)cnn45)cc3NC(C)C)s1)C2 [Example 66, N-(2-(5-(6-(3-cyanopyrrolo[1,2-b]pyridazin-7-yl)-4-(isopropylamino)pyridin-3-yl)-1,3,4-thiadiazol-2-yl)-2-azabicyclo[2.2.2]octan-4-yl)acetamide] | 9.38 | 7.87 | – | –
CC(=O)N1CC2(C1)CN(c1nnc(-c3cnc(-c4ccc5cc(C#N)cnn45)cc3NC(C)C)s1)C2 [Example 68, 7-(5-(5-(6-acetyl-2,6-diazaspiro[3.3]heptan-2-yl)-1,3,4-thiadiazol-2-yl)-4-(isopropylamino)pyridin-2-yl)pyrrolo[1,2-b]pyridazine-3-carbonitrile] | 9.35 | 7.42 | – | –
CC(=O)NC1CCC2(CC1)CN(c1nnc(-c3cnc(-c4ccc5cc(C#N)cnn45)cc3NC(C)C)s1)C2 [Example 69, N-(2-(5-(6-(3-cyanopyrrolo[1,2-b]pyridazin-7-yl)-4-(isopropylamino)pyridin-3-yl)-1,3,4-thiadiazol-2-yl)-2-azaspiro[3.5]nonan-7-yl)acetamide] | 8.94 | 7.93 | – | –
CC(=O)NC12CCC(c3nnc(-c4cnc(-c5ccc6cc(C#N)cnn56)cc4NC4COC4)s3)(CC1)CC2 [Example 70, N-(4-(5-(6-(3-cyanopyrrolo[1,2-b]pyridazin-7-yl)-4-(oxetan-3-ylamino)pyridin-3-yl)-1,3,4-thiadiazol-2-yl)bicyclo[2.2.2]octan-1-yl)acetamide] | 9.24 | 8.06 | – | –
CC(=O)NC12CCC(c3nnc(-c4cnc(-c5ccc6cc(C#N)cnn56)cc4NC4CCOCC4)s3)(CC1)CC2 [Example 71, N-(4-(5-(6-(3-cyanopyrrolo[1,2-b]pyridazin-7-yl)-4-((tetrahydro-2H-pyran-4-yl)amino)pyridin-3-yl)-1,3,4-thiadiazol-2-yl)bicyclo[2.2.2]octan-1-yl)acetamide] | 9.24 | 8.49 | – | –
CC(=O)N[C@H]1C[C@@H]2C[C@H]1CN2c1nnc(-c2cnc(-c3ccc4cc(C#N)cnn34)cc2NC(C)C)s1 [Example 74, N-((1S,4S,5S)-2-(5-(6-(3-cyanopyrrolo[1,2-b]pyridazin-7-yl)-4-(isopropylamino)pyridin-3-yl)-1,3,4-thiadiazol-2-yl)-2-azabicyclo[2.2.1]heptan-5-yl)acetamide] | 9.27 | 7.96 | – | –
CC(=O)NC1CCC2(CC1)CN(c1nnc(-c3cnc(-c4ccc5cc(C#N)cnn45)cc3NC3CCOCC3)s1)C2 [Example 79, N-(2-(5-(6-(3-cyanopyrrolo[1,2-b]pyridazin-7-yl)-4-((tetrahydro-2H-pyran-4-yl)amino)pyridin-3-yl)-1,3,4-thiadiazol-2-yl)-2-azaspiro[3.5]nonan-7-yl)acetamide] | 9.32 | 8.59 | – | –
CC(=O)N[C@@H]1CC[C@@H](c2nnc(-c3cnc(-c4ccc5cc(C#N)cnn45)cc3NC(C)C)s2)OC1 [Example 81, N-((3R,6S)-6-(5-(6-(3-cyanopyrrolo[1,2-b]pyridazin-7-yl)-4-(isopropylamino)pyridin-3-yl)-1,3,4-thiadiazol-2-yl)tetrahydro-2H-pyran-3-yl)acetamide] | 9.18 | 7.67 | – | –
CC(=O)NC12CCC(c3nnc(-c4cnc(-c5ccc6cc(C#N)cnn56)cc4NC(C)C)s3)(CC1)OC2 [Example 83, N-(1-(5-(6-(3-cyanopyrrolo[1,2-b]pyridazin-7-yl)-4-(isopropylamino)pyridin-3-yl)-1,3,4-thiadiazol-2-yl)-2-oxabicyclo[2.2.2]octan-4-yl)acetamide] | 8.86 | 7.28 | – | –
CC(C)Nc1cc(-c2ccc3cc(C#N)cnn23)ncc1-c1nnc(C23CCC(O)(CC2)CC3)s1 [Example 89, 7-(5-(5-(4-hydroxybicyclo[2.2.2]octan-1-yl)-1,3,4-thiadiazol-2-yl)-4-(isopropylamino)pyridin-2-yl)pyrrolo[1,2-b]pyridazine-3-carbonitrile] | 9.00 | 7.95 | – | –
CC(C)Nc1cc(-c2ccc3cc(C#N)cnn23)ncc1-c1nnc(N2C[C@H]3CC[C@@H](C2)[C@@H]3NC(=O)[C@H](C)O)s1 [Example 91, (S)-N-((1R,5S,8s)-3-(5-(6-(3-cyanopyrrolo[1,2-b]pyridazin-7-yl)-4-(isopropylamino)pyridin-3-yl)-1,3,4-thiadiazol-2-yl)-3-azabicyclo[3.2.1]octan-8-yl)-2-hydroxypropanamide] | – | – | 9.03 | 8.41
CC(C)Nc1cc(-c2ccc3cc(C#N)cnn23)ncc1-c1nnc(N2C[C@H]3CC[C@@H](C2)[C@@H]3NC(=O)C2CN(C)C2)s1 [Example 102, N-((1R,5S,8s)-3-(5-(6-(3-cyanopyrrolo[1,2-b]pyridazin-7-yl)-4-(isopropylamino)pyridin-3-yl)-1,3,4-thiadiazol-2-yl)-3-azabicyclo[3.2.1]octan-8-yl)-1-methylazetidine-3-carboxamide] | – | – | 8.91 | 7.50
CC(=O)N[C@H]1CC[C@@H](c2nnc(-c3cnc(-c4ccc5cc(C#N)cnn45)cc3NC(C)C)s2)CC1 [Example 127, N-((1s,4s)-4-(5-(6-(3-cyanopyrrolo[1,2-b]pyridazin-7-yl)-4-(isopropylamino)pyridin-3-yl)-1,3,4-thiadiazol-2-yl)cyclohexyl)acetamide] | – | – | 9.19 | 8.00
CC(=O)N1CCC(c2nnc(-c3cnc(-c4ccc5cc(C#N)cnn45)cc3NC(C)C)s2)CC1 [Example 128, 7-(5-(5-(1-acetylpiperidin-4-yl)-1,3,4-thiadiazol-2-yl)-4-(isopropylamino)pyridin-2-yl)pyrrolo[1,2-b]pyridazine-3-carbonitrile] | 9.23 | 7.73 | – | –
CC(C)Nc1cc(-c2ccc3cc(C#N)cnn23)ncc1-c1nnc(N2CCNCC2)s1 [Example 130, 7-(4-(isopropylamino)-5-(5-(piperazin-1-yl)-1,3,4-thiadiazol-2-yl)pyridin-2-yl)pyrrolo[1,2-b]pyridazine-3-carbonitrile] | 9.19 | 7.73 | – | –
CC(C)Nc1cc(-c2ccc3cc(C#N)cnn23)ncc1-c1nnc(N2CCOCC2)s1 [Example 131, 7-(4-(isopropylamino)-5-(5-morpholino-1,3,4-thiadiazol-2-yl)pyridin-2-yl)pyrrolo[1,2-b]pyridazine-3-carbonitrile] | 9.28 | 7.84 | – | –
CC(C)Nc1cc(-c2ccc3cc(C#N)cnn23)ncc1-c1nnc(C2CCN(CC(F)F)CC2)s1 [Example 133, 7-(5-(5-(1-(2,2-difluoroethyl)piperidin-4-yl)-1,3,4-thiadiazol-2-yl)-4-(isopropylamino)pyridin-2-yl)pyrrolo[1,2-b]pyridazine-3-carbonitrile] | 8.83 | 6.27 | – | –
